Tests used:
[1] = test system: serum IgM anti-17-α-hydroxyprogesterone antibodies; assay: ELISA binding of IgM 17-α-hydroxyprogesterone antibodies to different hormones in solid phase; set-up: species or system human; conditions: for IgM binding (optical density): hormone in solid phase, 405 nm; for IgM % reaction: relative to 17-α-hydroxyprogesterone = 100
Method: (§1) The ELISA inhibition method was used to determine specificity and cross-reactivity between different hormones and to ensure the degree of human IgG, IgM and IgE estrogen or progesterone binding to estrogen or progesterone in solid phase. […] 100 μl of sera from three different patients with high IgG, IgM or IgE antibodies against 17-α-hydroxyprogesterone was added to all wells. After shaking and incubation for 1 hr at room temperature, addition of enzyme labeled anti-human IgG, IgM or IgE, repeat of incubation, washing, and addition of substrate, color development was measured at 405 nm. Results were calculated as percentage of anti-17-α-hydroxyprogesterone binding to 17-α-hydroxyprogesterone and other hormones. Also, anti-estrogen binding to estrogen and other hormones in solid phase by progesterone in liquid phase was performed and calculated in a similar manner.
(§2) Human sera containing 17-α-hydroxyprogesterone IgG-, IgM- and IgE-binding antibodies were reacted against progesterone, estrogen, hydrocortisone and cholesterol. In comparison to 100% binding of anti-17-α-hydroxyprogesterone-binding to 17-α-hydroxyprogesterone, the IgG anti-17-α-hydroxyprogesterone-binding to progesterone, estrogen, hydrocortisone and cholesterol was 69-77%, 25-30%, 39-53%, and less than 10% respectively (Table 4). The % binding of serum IgM and IgE anti-17-α-hydroxyprogesterone to 17-1-hydroxyprogesterone, progesterone, estrogen, hydrocortisone and cholesterol was similar to the binding of IgG. This binding of anti-17-α-hydroxyprogesterone to progesterone was the highest, followed by hydrocortisone, then estrogen, to almost no binding with cholesterol. Similar to this, human sera with IgG, IgM and IgE binding antibodies against estrogen were reacted with progesterone, 17-α-hydroxyprogesterone, hydrocortisone and cholesterol, in the presence of estrogen.

[2] = test system: serum IgG anti-estrogen antibodies; assay: Competition ELISA: absorption of serum IgG anti-estrogen with specific and non-specific antigens; type: binding, human; conditions: for IgG level after absorption: absorption with 250 μg/mL, optical density 405 nm
Method: (§3) For this, microtiter plates were coated with hormones and blocked by the addition of 2% BSA in PBST. 100 μl of serum diluent buffer was added to all wells. […] After 60 minutes incubation 100 μl serum anti-estrogen or anti-progesterone was added to all wells. […] Results were calculated as percentage of inhibition in antigen-antibody reaction.
(§4) To examine whether antibodies to estrogen or progesterone are specific or cross-reactive, we performed competition ELISA by adding specific and non-specific antigens in liquid phase and examined prevention of serum antibody binding to the antigen in solid phase. […] For IgE anti-estrogen, this inhibition by estrogen-BSA was between 54-62%, and with progesterone-BSA, from 37-43%. […] This cross-reaction between estrogen and progesterone antibodies may be due to structural similarities between these two hormones.

[3] = test system: serum IgE anti-17-α-hydroxyprogesterone antibodies; assay: ELISA binding of IgE 17-α-hydroxyprogesterone antibodies to different hormones in solid phase; set-up: species or system human; conditions: for IgE binding (optical density): hormone in solid phase, 405 nm; for IgE % reaction: relative to 17-α-hydroxyprogesterone = 100
Method: as §1, §2

[4] = test system: patients experiencing hormone allergy symptoms; assay: Clinical responses of hormone allergy symptoms to intradermal dilute progesterone (or estrogen); type: in vivo, human; conditions: 0.4 mg intradermally
Description: Patients experiencing several hormone allergy symptoms experienced relief when administered dilute doses of progesterone either sublingually or intradermally.
The symptoms measured were irritation or pain in the neck, nose, eyes, throat, ear, skin, back, hips, upper extremities and lower extremities, headache, and shortness of breath. […]
Patients were designated as responding patients in Table 1 if they experienced any relief of the indicated symptom. Patients were also asked to estimate the amount of improvement in the symptom, an average of which is
In Table 2 the probability that positive results (i.e. patients responding to treatment) were due to random effects was calculated using standard statistical analysis of patient tests. It was assumed that if the treatment has no effect, there is a 50% chance that a patient will indicate a positive response and a 50% chance that a patient will indicate a negative response. From this assumption, coupled with the actual data, one may calculate the probability that positive responses are due to an actual effect of the treatment and not simply random effects. In general, results with a less than 1% chance of being random are considered highly significant. Results with a less than 5% chance of being random are normally conclusively labeled as nonrandom. Thus, the results observed for most of the symptoms in Table 2 are highly significant, with only the results for ear irritation and pain falling merely in the nonrandom category.
Hormone samples may be prepared in any way suitable for the intended administration route. For administration through intradermal injection, samples may be prepared as they were in the studies of Examples 2 and 3. Specifically, the progesterone was formulated from commercially available injectable progesterone. Each ml of the final formulation contained […] of progesterone and 10% benzyl alcohol as a preservative in sesame oil. 0.1 ml was administered per patient intradermally. Estrogen samples were similarly prepared.

[5] = test system: serum IgG anti-estrogen antibodies; assay: ELISA binding of IgG estrogen antibodies to different hormones in solid phase; set-up: species or system human; conditions: for IgG binding (optical density): hormone in solid phase, 405 nm; for IgG % reaction: relative to estrogen = 100
Method: as §1, §2

[6] = test system: serum IgG anti-17-α-hydroxyprogesterone antibodies; assay: ELISA binding of IgG 17-α-hydroxyprogesterone antibodies to different hormones in solid phase; set-up: species or system human; conditions: for IgG binding (optical density): hormone in solid phase, 405 nm; for IgG % reaction: relative to 17-α-hydroxyprogesterone = 100
Method: as §1, §2

[7] = test system: serum IgE anti-estrogen antibodies; assay: Competition ELISA: absorption of serum IgE anti-estrogen with specific and non-specific antigens; type: binding, human; conditions: for IgE level after absorption: absorption with 250 μg/mL, optical density 405 nm
Method: as §3, §4

[8] = test system: serum IgM anti-estrogen antibodies; assay: ELISA binding of IgM estrogen antibodies to different hormones in solid phase; set-up: species or system human; conditions: for IgM binding (optical density): hormone in solid phase, 405 nm; for IgM % reaction: relative to estrogen = 100
Method: as §1, §2

[9] = test system: serum IgE anti-estrogen antibodies; assay: ELISA binding of IgE estrogen antibodies to different hormones in solid phase; set-up: species or system human; conditions: for IgE binding (optical density): hormone in solid phase, 405 nm; for IgE % reaction: relative to estrogen = 100
Method: as §1, §2

[10] = antigen in liquid phase, over the three sera
[11] = relative to estrogen, over three sera

## estrogen
[1]; sample 1
  IgM binding (optical density): 0.4
  IgM % reaction: −31%
[1]; sample 2
  IgM binding (optical density): 0.41
  IgM % reaction: −25%
[1]; sample 3
  IgM binding (optical density): 0.29
  IgM % reaction: −32%
[2]; [10]
  inhibition of anti-estrogen binding to estrogen (IgG): did not significantly absorb
[2]; serum sample 1, before absorption 1.83
  IgG level after absorption: 1.53
[2]; serum sample 2, before absorption 1.25
  IgG level after absorption: 0.95
[2]; serum sample 3, before absorption 0.76
  IgG level after absorption: 0.54
[3]; sample 1
  IgE binding (optical density): 0.42
  IgE % reaction: −29%
[3]; sample 2
  IgE binding (optical density): 0.75
  IgE % reaction: −31%
[3]; sample 3
  IgE binding (optical density): 0.37
  IgE % reaction: −25%
[4]
  symptom relief in patients not relieved by progesterone treatment: experience relief
[5]; [11]
  IgG anti-estrogen binding: 100%
[5]; sample 1
  IgG binding (optical density): 1.2
  IgG % reaction: −100%
[5]; sample 2
  IgG binding (optical density): 1.8
  IgG % reaction: −100%
[5]; sample 3
  IgG binding (optical density): 0.92
  IgG % reaction: −100%
[6]; in comparison to 100% binding to 17-α-hydroxyprogesterone, over three sera
  IgG anti-17-α-hydroxyprogesterone binding: 25-30%
[6]; sample 1
  IgG binding (optical density): 0.48
  IgG % reaction: −30%
[6]; sample 2
  IgG binding (optical density): 0.24
  IgG % reaction: −25%
[6]; sample 3
  IgG binding (optical density): 0.18
[7]; [10]
  inhibition of IgE anti-estrogen binding: did not significantly absorb
[7]; serum sample 1, before absorption 2.15
  IgE level after absorption: 1.70
[7]; serum sample 2, before absorption 1.66
  IgE level after absorption: 1.30
[7]; serum sample 3, before absorption 1.34
  IgE level after absorption: 0.86
[8]; [11]
  IgM anti-estrogen binding: 100%
[8]; sample 1
  IgM binding (optical density): 0.9
  IgM % reaction: −100%
[8]; sample 2
  IgM binding (optical density): 2.1
  IgM % reaction: −100%
[8]; sample 3
  IgM binding (optical density): 1.3
  IgM % reaction: −100%
[9]; [11]
  IgE anti-estrogen binding: 100%
[9]; sample 1
  IgE binding (optical density): 0.8
  IgE % reaction: −100%
[9]; sample 2
  IgE binding (optical density): 1.5
  IgE % reaction: −100%
[9]; sample 3
  IgE binding (optical density): 1.6
  IgE % reaction: −100%

— patent US20060025390A1, “Treatment of hormone allergy and related symptoms and disorders” (priority 2004, published 2006)
